From US7635693B2, “Methods for preventing and treating cancer using N-thiolated β-lactam compounds and analogs thereof” (University of South Florida, priority 2002, dated 2009)
Where “and” joins values, the source holds several entries; their conditions need not be identical. Equal entries are not always repeated. Where two headings read alike, the source gives them in different places.

Assays:
caspase-3 [1] = assay: Cell-free caspase-3 activity assay on extracts of treated Jurkat T cells; type: cell-based, human; details: 50 μM, 8 hours
Experimental: (§1) Briefly, a prepared protein extract (20 μg) is incubated in a buffer containing 50 mM Tris/pH 8.0 along with each respective caspase substrate at 20 μM in a 96 well plate. The reaction mixture is incubated at 37° C. for 2 h.
A library of β-lactam analogs was screened for their ability to induce apoptosis. The screening procedure is accomplished by treating human Jurkat T cells with each compound at 50 μM for 8 hours. This is followed by preparation of cell lysates and measurement of apoptosis-specific caspase-3 activation (by cell-free caspase-3 activity assay) and PARP cleavage (by Western blotting).

PARP [2] = assay: PARP cleavage, Western blot, Jurkat T cells; type: cell-based, human; details: 50 μM, 8 hours
From the text: A library of β-lactam analogs was screened for their ability to induce apoptosis. […] This is followed by preparation of cell lysates and measurement of apoptosis-specific caspase-3 activation (by cell-free caspase-3 activity assay) and PARP cleavage (by Western blotting).

Jurkat T cells [3] = assay: Flow cytometry cell cycle distribution and sub-G1 population, Jurkat T cells; type: cell-based, human; details: 50 μM; for increase in S phase population / sub-G1 apoptotic population: 5 hours
Experimental: Cell Death Differ 5:1062-75. At each time point, cells are harvested, counted, and washed twice with PBS. Cells (5×10^6) are suspended in 0.5 ml PBS, fixed in 5 ml of 70% ethanol for at least 2 h at −20° C., centrifuged, resuspended again in 1 ml of propidium iodide staining solution (50 μg propidium iodide, 100 units RNase A and 1 mg glucose per ml PBS), and incubated at room temperature for 30 minutes. The cells are then analyzed with FACScan (Becton Dickinson Immunocytometry, CA), ModFit LT and WinMDI V.2.8 cell cycle analysis software (Verity Software; Topsham, Me.). The cell cycle distribution is shown as the percentage of cells containing G1, S, G2, and M DNA judged by propidium iodide staining. The apoptotic population is determined as the percentage of cells with sub-G1 (<G1) DNA content.

Jurkat T cells [4] = assay: TUNEL assay (DNA strand breaks), Jurkat T cells; type: cell-based, human; details: for TUNEL-positive cell population (DNA damage): 4 hour
Experimental: Terminal deoxynucleotidyl transferase-mediated UTP nick end labeling (TUNEL) was performed to determine the extent of DNA strand breaks. TUNEL assay was performed with an APO-Direct kit per the manufacturer's instructions. In brief, cells are fixed in 1% paraformaldehyde and ethanol at […] overnight and then permeabilized with Proteinase K. After permeabilization, Fluorescein conjugated dNTP's and TdT enzyme (Terminal Deoxynucleotidyl Transferase) are added to the cells. The TdT enzyme is then able to label free ends of DNA with Fluorescein conjugated dNTPs that could then be detected by flow cytometry.
The assay was performed following manufacturer's instruction using the APO-Direct kit. In brief, the harvested cells were fixed in 1% paraformaldehyde for 15 min on ice, washed with PBS, and then fixed again in 70% ethanol at −20° C. overnight. The cells were then incubated in DNA labeling solution (containing terminal deoxynucleotidyl transferase (TdT) enzyme, fluorescein-conjugated dUTP and reaction buffer) for 90 min at 37° C. After removing the DNA labeling solution by rinsing cells with Rinsing Buffer, the cells were incubated with the Propidium Iodide/RNase A solution, incubated for 30 min at room temperature in the dark, and then analyzed by flow cytometry within 3 h of staining.

Jurkat T cells [5] = assay: Morphological changes of treated Jurkat T cells; type: cell-based, human; details: 50 μM, 8 hours
p38 MAP kinase = assay: p38 phosphorylation, Western blot, Jurkat T cells; type: cell-based, human; details: for normalized increase in phosphorylation of p38 over control: FIG. 8D
From the text: It has been shown that multiple stimuli including DNA damaging agents induce apoptosis via activation of p38 MAP kinase (Kummer J L, et al., 1997, Apoptosis induced by withdrawal of trophic factors is mediated by p38 mitogen-activated protein kinase. J. Biol Chem 272:20490-4; Sanchez-Prieto R, et al., 2000, A role for the p38 mitogen-acitvated protein kinase pathway in the transcriptional activation of p53 on genotoxic stress by chemotherapeutic agents. Cancer Res 60:2464-72). […] The levels of Tyr-182 phosphorylated p38 protein were increased by 3-fold at 2 h and reached its maximum (˜9-fold) by 6 h (FIG. 8A). In has been shown that dual phosphorylation of p38 on Tyr-182 and Thr-180 activates this kinase (Raingeaud J, et al., 1995, Pro-inflammatory cytokines and environmental stress cause p38 mitogen-activated protein kinase activation by dual phosphorylation on tyrosine and threonine. J Biol Chem 270:7420-6). […] Therefore, lactam 1-induced DNA damage triggered activation of p38 before S population accumulation and apoptosis induction.

Jurkat T cells [6] = type: cell-based, human; details: for non-viable cell population / cell death (trypan blue): 50 μM
Experimental: The trypan blue exclusion assay was performed by injecting 10 μl of cell suspension containing 0.2% trypan blue dye into a hemoicytometer and counting. Numbers of cells that absorbed the dye and those that excluded the dye are counted, from which the percentage of non-viable cell number to total cell number is calculated.

PARP [7] = details: YT cells, 2, 10, 25, and 50 μM, 12 h
Experimental: Human Jurkat T cells and human prostate cancer LNCaP cells were cultured in RPMI 1640 medium, supplemented with 10% fetal bovine serum, 100 units/ml penicillin, and 100 μg/ml streptomycin. Human YT cells were cultured in RPMI 1640 medium supplemented with 1 mM MEM sodium pyruvate solution, 0.1 mM MEM non-essential amino acids solution, 10% fetal bovine serum, 100 units/ml penicillin, and 100 μg/ml streptomycin. All cell lines were maintained at 37° C. in a humidified incubator with an atmosphere of 5% CO2. […] Briefly, cells were harvested, washed with PBS and homogenized in a lysis buffer (50 mM Tris-HCl, pH 8.0, 5 mM EDTA, 150 mM NaCl, 0.5% NP-40, 0.5 mM phenylmethylsulfonyl fluoride, and 0.5 mM dithiothreitol) for 30 min at 4° C. Afterwards, the lysates were centrifuged at 12000×g for 15 min at 4° C. and the supernatants collected as whole-cell extracts. Equal amounts of protein extract (60 μg) were resolved by SDS-polyacrylamide gel electrophoresis and transferred to a nitrocellulose membrane (Schleicher & Schuell, Keene, N. H.) using a Semi-Dry Transfer System (Bio-Rad, Hercules, Calif.). The enhanced chemiluminescence Western blot analysis was then performed using specific antibodies to the proteins of interest.

NK cells (YT line) = details: YT cells, 2, 10, 25, and 50 μM, 24 h
Experimental: The trypan blue dye exclusion assay was performed by mixing 20 μl of cell suspension with 20 μl of 0.4% trypan blue dye before injecting into a hemocytometer and counting. The number of cells that absorbed the dye and those that exclude the dye were counted, from which the percentage of nonviable cell number to total cell number was calculated.

caspase-3 [8] = details: LNCaP cells, 48 h
Experimental: To measure cell-free caspase-3 activity, whole cell extracts (20-30 μg) from untreated or treated LNCaP cells were incubated with 20 μM of the fluorogenic substrate caspase-3/caspase-7 (Ac-DEVD-AMC) for 30 min at 37° C. in 100 μl of assay buffer (50 mM Tris, pH 8.0).

LNCaP cells = LNCaP cells in soft agar, 50 μM, 21 day-incubation
Experimental: The soft agar assay was performed as described previously (Menter D G, Sabichi A L, Lippman S M., 2000, Selenium effects on prostate cell growth. Cancer Epidemiol Biomarkers Prev 9:1171-82) with a few modifications. In brief, in a six-well plate, a bottom feeder layer (0.6% agar) was prepared with DMEM media containing 10% fetal bovine serum, 100 units/ml penicillin, and 100 μg/ml streptomycin. […] Plates were incubated at 37° C. in 5% CO2 in a humidified incubator for three weeks. MTT (1 mg/ml) was added to each well and incubated overnight to allow complete formation of purple formazan crystals. The plates were then scanned and photographed, and the number of colonies was quantified by Quantity one v.4.0.3 software (Bio-Rad, Hercules, Calif.).

caspase-8 = assay: Cell-free caspase-8 activity in lysates of VP-16-treated Jurkat T cells, inhibitor present; type: biochemical, human; details: lysates of Jurkat T cells treated with 50 μM VP-16 for 5 hours
Experimental: as §1

caspase-9 = assay: Cell-free caspase-9 activity in lysates of VP-16-treated Jurkat T cells, inhibitor present; type: biochemical, human; details: lysates of Jurkat T cells treated with 50 μM VP-16 for 5 hours
Experimental: as §1

caspase-3 [9] = assay: Cell-free caspase-3 activity in lysates of VP-16-treated Jurkat T cells, inhibitor present; type: biochemical, human; details: lysates of Jurkat T cells treated with 50 μM VP-16 for 5 hours
Experimental: as §1

Structure (SMILES): COC1C(=O)NC1c1ccccc1Cl (racemic) [lactam 2]
- caspase-3 activation (caspase-3 [1]): induces neither caspase-3 activation nor PARP cleavage
- PARP cleavage (PARP [2]): induces neither caspase-3 activation nor PARP cleavage
- increase in S phase population (Jurkat T cells [3]): did not induce accumulation of either S or sub-G1 populations
- sub-G1 apoptotic population (Jurkat T cells [3]): did not induce accumulation of either S or sub-G1 populations
- TUNEL-positive cell population (DNA damage) (Jurkat T cells [4]; 50 μM): did not cause any DNA damage
- morphological changes (Jurkat T cells [5]): no morphological changes

Structure (SMILES): CCSN1C(=O)C(OC)C1c1ccccc1Cl (racemic) [lactam 3]
- decrease of caspase-3 activity relative to lactam 1 (caspase-3 [1]): ~50%
- decrease of PARP cleavage relative to lactam 1 (PARP [2]): ~50%
- increase in S phase population (Jurkat T cells [3]): 15%
- sub-G1 apoptotic population (Jurkat T cells [3]): 10%
- TUNEL-positive cell population (DNA damage) (Jurkat T cells [4]; 50 μM): 16%
- normalized increase in phosphorylation of p38 over control (p38 MAP kinase): 3.2 fold

Structure (SMILES): CCCCSN1C(=O)C(OC)C1c1ccccc1Cl (racemic) [lactam 4]
- decrease of caspase-3 activity relative to lactam 1 (caspase-3 [1]): ~65%
- decrease of PARP cleavage relative to lactam 1 (PARP [2]): ~65%
- increase in S phase population (Jurkat T cells [3]): 8%
- sub-G1 apoptotic population (Jurkat T cells [3]): 2%
- TUNEL-positive cell population (DNA damage) (Jurkat T cells [4]; 50 μM): 3%
- normalized increase in phosphorylation of p38 over control (p38 MAP kinase): 2.6 fold

Structure (SMILES): COC1C(=O)N(SC)C1c1ccc(Cl)cc1 (racemic) [lactam 6]
- decrease of caspase-3 activity relative to lactam 1 (caspase-3 [1]): ~20%
- decrease of PARP cleavage relative to lactam 1 (PARP [2]): ~20%

Structure (SMILES): COC1C(=O)N(SCc2ccccc2)C1c1ccccc1Cl (racemic) [lactam 7]
- decrease of caspase-3 activity relative to lactam 1 (caspase-3 [1]): ~70%
- decrease of PARP cleavage relative to lactam 1 (PARP [2]): ~70%

Structure (SMILES): COC1C(=O)N(SC)C1c1ccccc1Br (racemic) [lactam 23]
- non-viable cell population / cell death (trypan blue) (Jurkat T cells [6]; 24 h): 55%

Structure (SMILES): COC1C(=O)N(SC)C1c1ccccc1I (racemic) [lactam 46]
- non-viable cell population / cell death (trypan blue) (Jurkat T cells [6]; 24 h): 60%

Structure (SMILES): COC1C(=O)N(SC)C1c1ccccc1[N+](=O)[O-] (racemic) [lactam 47]
- cell death (trypan blue) (Jurkat T cells [6]; 10 μM, 24 h): 25%
- cell death (trypan blue) (Jurkat T cells [6]; 25 μM, 3 h): 15%
- trypan blue-positive cells (Jurkat T cells [6]; 25 μM, 6 h): 24%
- cell death (trypan blue) (Jurkat T cells [6]; 25 μM, 24 h): 45%
- non-viable cell population / cell death (trypan blue) (Jurkat T cells [6]; 24 h): ~94% and 80-90%
- potency relative to lactam 1 (Jurkat T cells [6]; 24 h, trypan blue dose-response): ~2 fold
- sub-G1 population (Jurkat T cells [3]; 12 h): 34%
- sub-G1 population (Jurkat T cells [3]; 24 h): 57%
- TUNEL-positive cells (Jurkat T cells [4]; 50 μM, 12-24 h): 82-90%
- cells with DNA strand breaks (TUNEL) (Jurkat T cells [4]; 50 μM, 3 h): ~70%
- PARP cleavage (PARP [7]): nor PARP cleavage
- cell death (trypan blue) (NK cells (YT line)): neither cell death
- increase in caspase-3 activity over control (caspase-3 [8]; 2 μM): 2 fold
- increase in caspase-3 activity over control (caspase-3 [8]; 10 μM): 2.5 fold
- increase in caspase-3 activity over control (caspase-3 [8]; 25 μM): 4.2 fold
- inhibition of colony formation (LNCaP cells): ~100%

Structure (SMILES): COC1C(=O)N(SC)C1c1ccccc1 (racemic) [lactam 48]
- non-viable cell population / cell death (trypan blue) (Jurkat T cells [6]; 24 h): ~25%

Structure (SMILES): COC1C(=O)N(SC)C1c1ccccc1F (racemic) [lactam 49]
- non-viable cell population / cell death (trypan blue) (Jurkat T cells [6]; 24 h): ~35%

Structure (SMILES): CC(C)(C)OC(=O)NC(CC(=O)O)C(=O)CF [Boc-D-FMK, N-tert-butoxycarbonyl-Asp-fluoromethyl ketone]
- TUNEL positivity on co-treatment with lactam 1 (Jurkat T cells [4]; 4 hours, 50 μM lactam 1 plus PD 169316 at 30 μM or Boc-D-FMK at 50 μM): 97%
- effect on lactam 1-induced p38 phosphorylation (p38 MAP kinase; 4 hours, 50 μM lactam 1 plus inhibitor at 50 μM): not affected
- direct inhibition of caspase-8 activity (caspase-8): completely blocked
- direct inhibition of caspase-9 activity (caspase-9): completely blocked
- direct inhibition of caspase-3 activity (caspase-3 [9]): completely blocked

Structure (SMILES): O=C1CC2(CCCCC2)CN1 [lactam 5]
- decrease of caspase-3 activity relative to lactam 1 (caspase-3 [1]): ~20%
- decrease of PARP cleavage relative to lactam 1 (PARP [2]): ~20%
